# Tests used:
# E. faecium 1798 = experiment: microbe, parasite or virus in culture; format: cell-based, Enterococcus faecium; settings: 1798, 24 h
# Method: (§1) Overnight cultures of the enterococcal isolates were diluted in physiological saline (0.9% NaCl) to reach a turbidity of 0.5 McFarland units (Sensititre® nephelometer and the Sensititre® McFarland Standard). Bacterial suspensions were adjusted to 5 × 10^5 CFU/mL in MHB II or BHI broth containing two-fold dilutions of peptidomimetics or conventional antibiotics in a final volume of 100 µL. The plates were incubated for 24 h at 37 °C without shaking. […] All experiments were performed in three biological replicates.
# E. faecium 2961 = experiment: microbe, parasite or virus in culture; format: cell-based, Enterococcus faecium; settings: 2961, 24 h
# Method: as §1
# E. faecium 3978 = experiment: microbe, parasite or virus in culture; format: cell-based, Enterococcus faecium; settings: 3978, 24 h
# Method: as §1
# E. faecium D344R = experiment: microbe, parasite or virus in culture; format: cell-based, Enterococcus faecium; settings: E. faecium D344R, human clinical isolate; 24 h
# Method: as §1
# E. faecium ATCC 19434 = experiment: microbe, parasite or virus in culture; format: cell-based, Enterococcus faecium; settings: ATCC 19434, 24 h
# Method: as §1, with “replicates. […]” for “replicates.”
# E. faecalis ATCC 29212 = experiment: microbe, parasite or virus in culture; format: cell-based, Enterococcus faecalis; settings: ATCC 29212, 24 h
# Method: as §1, with “replicates. […]” for “replicates.”
# E. faecalis 38262 = experiment: microbe, parasite or virus in culture; format: cell-based, Enterococcus faecalis; settings: 38262, 24 h
# Method: as §1
# E. faecalis 39002 = experiment: microbe, parasite or virus in culture; format: cell-based, Enterococcus faecalis; settings: 39002, 24 h
# Method: as §1
# Hemolytic activity = format: cell-based, human; settings: 37 °C, 1% red blood cell suspension
# Method: A suspension of hRBCs (Single-donor human red blood cells—washed; catalogue No. IPLA-W3 from Innovative researchTM) was washed three times with PBS buffer and centrifuged for 5 min at 2500 rpm. A two-fold serial dilution of compounds in PBS buffer was prepared. Plates (conical-bottomed 96-well plates) with 3 replicate wells per dilution, containing 1% red blood cell suspension, were prepared and dosed with the test compound to achieve a final concentration of 400 μg/mL in a total volume of 100 μL. The plates were incubated (37 °C) for 60 min with mild agitation, and then the cells were pelleted by centrifugation at 1500 rpm for 5 min. Then, the supernatants (50 μL) were transferred to a fresh 96-well plate, and then the concentration of hemoglobin was detected by measuring the OD at 405 nm. The OD of cells incubated with 1% SDS achieved 100% hemolysis, while the OD of cells incubated with PBS buffer achieved 0% hemolysis. The concentration tested was 400 μg/mL (only average values are stated in Table 3). The percent hemolysis was calculated by using the formula:Hemolysis(%) = 100 × [(Asample − Aneg.control)/(Apos. control − Aneg.control)]
# [1] = tested on: HepG2 cell line ATCC HB-8065; experiment: Effect on HepG2 cell viability (MTT assay); format: cell-based, human; settings: 48 h
# Method: The effect of peptidomimetics on mammalian cell viability was determined on the HepG2 cell line ATCC HB-8065. In brief, HepG2 cells were seeded into flat-bottom 96-well plates at a concentration of 5000 cells per well. The cells were incubated for 24 h in a humidified incubator (5% CO2, 37 °C). Subsequently, the medium was removed, and the cells were incubated for 48 h in a humidified incubator (5% CO2, 37 °C) with peptidomimetics in serial dilutions. An MTT assay was then performed; in brief, after incubation with the test compounds, the culture medium was removed and fresh medium with 0.2 mg/mL MTT was then added into each well. After incubation (3 h, 37 °C, 5% CO2), the medium with MTT was removed, and 200 μL dimethyl sulfoxide was added at once to each sample. The absorbance of MTT was measured using the spectrophotometer TECAN Infinite M1000 at 540 nm. The relative viability was calculated by using the formula:ODtreated cells × 100/ODcontrol cells
# The IC50 values were calculated using the program Graph Pad Prism 5.0. For all compounds, the test range was 10–1280 μg/mL.
structure (smiles),measurement,setting,value
"NCCCC[C@H](NC(=O)CCN(Cc1cc(F)c(F)c(F)c1)C(=O)[C@H](CCCCN)NC(=O)CCN(Cc1cc(F)c(F)c(F)c1)C(=O)[C@H](CCCCN)NC(=O)CCN(Cc1cc(F)c(F)c(F)c1)C(=O)[C@H](CCCCN)NC(=O)CCN(Cc1cc(F)c(F)c(F)c1)C(=O)[C@H](CCCCN)NC(=O)CCN(Cc1cc(F)c(F)c(F)c1)C(=O)[C@@H](N)CCCCN)C(=O)N(CCC(N)=O)Cc1cc(F)c(F)c(F)c1 [Compound 8, H-[Lys-βNPhe(F3)]6-NH2]",Minimum inhibitory concentration,E. faecium 1798,2 to 4 µg/mL
same,Minimum inhibitory concentration,E. faecium 2961,2 µg/mL
same,Minimum inhibitory concentration,E. faecium 3978,2 µg/mL
same,Minimum inhibitory concentration,E. faecium D344R,2 µg/mL
same,Minimum inhibitory concentration,E. faecium ATCC 19434,2 to 4 µg/mL
same,Minimum inhibitory concentration,E. faecalis ATCC 29212,2 to 4 µg/mL
same,Minimum inhibitory concentration,E. faecalis 38262,8 to 16 µg/mL
same,Minimum inhibitory concentration,E. faecalis 39002,2 µg/mL
same,"hemolysis at 60 min, 400 µg/mL","Hemolytic activity; human, human red blood cells (washed, 1% suspension)",> 20%
same,HepG2 IC50,[1],27 µg/mL
"NCCCC[C@H](NC(=O)CCN(CC1CCCCC1)C(=O)[C@H](CCCCN)NC(=O)CCN(CC1CCCCC1)C(=O)[C@H](CCCCN)NC(=O)CCN(CC1CCCCC1)C(=O)[C@H](CCCCN)NC(=O)CCN(CC1CCCCC1)C(=O)[C@H](CCCCN)NC(=O)CCN(CC1CCCCC1)C(=O)[C@H](CCCCN)NC(=O)CCN(CC1CCCCC1)C(=O)[C@H](CCCCN)NC(=O)CCN(CC1CCCCC1)C(=O)[C@@H](N)CCCCN)C(=O)N(CCC(N)=O)CC1CCCCC1 [Compound 9, H-[Lys-βNCha]8-NH2]",Minimum inhibitory concentration,E. faecium 1798,2 to 4 µg/mL
same,Minimum inhibitory concentration,E. faecium 2961,2 to 4 µg/mL
same,Minimum inhibitory concentration,E. faecium 3978,2 to 4 µg/mL
same,Minimum inhibitory concentration,E. faecium ATCC 19434,2 to 4 µg/mL
same,Minimum inhibitory concentration,E. faecalis ATCC 29212,2 to 4 µg/mL
same,Minimum inhibitory concentration,E. faecalis 38262,8 µg/mL
same,Minimum inhibitory concentration,E. faecalis 39002,4 µg/mL
same,hemolysis,"Hemolytic activity; 400 µg/mL, 60 min",> 20%
"CCCCCCCCCCCC(=O)N[C@@H](CCCCN)C(=O)N(CCC(=O)N[C@@H](CCCCN)C(=O)N(CCC(=O)N[C@@H](CCCCN)C(=O)N(CCC(=O)N[C@@H](CCCCN)C(=O)N(CCC(=O)N[C@@H](CCCCN)C(=O)N(CCC(=O)N[C@@H](CCCCN)C(=O)N(CCC(N)=O)Cc1ccccc1)Cc1ccccc1)Cc1ccccc1)Cc1ccccc1)Cc1ccccc1)Cc1ccccc1 [Compound 11, Lau-[Lys-βNPhe]6-NH2]",Minimum inhibitory concentration,E. faecium 1798,2 to 4 µg/mL
same,Minimum inhibitory concentration,E. faecium 2961,2 to 4 µg/mL
same,Minimum inhibitory concentration,E. faecium 3978,2 to 4 µg/mL
same,Minimum inhibitory concentration,E. faecium D344R,2 to 4 µg/mL
same,Minimum inhibitory concentration,E. faecium ATCC 19434,4 µg/mL
same,Minimum inhibitory concentration,E. faecalis ATCC 29212,4 µg/mL
same,Minimum inhibitory concentration,E. faecalis 38262,4 to 8 µg/mL
same,Minimum inhibitory concentration,E. faecalis 39002,4 to 8 µg/mL
same,HepG2 IC50,[1],22 µg/mL

# From PMC8197855, “Peptide/β-Peptoid Hybrids with Activity against Vancomycin-Resistant Enterococci: Influence of Hydrophobicity and Structural Features on Antibacterial and Hemolytic Properties” (International Journal of Molecular Sciences, 2021)
